Measured values published in ChEMBL document CHEMBL1136413, “Caged RNase: photoactivation of the enzyme from perfect off-state by site-specific incorporation of 2-nitrobenzyl moiety” (Bioorg Med Chem Lett, 2003).
Non-standard residues stand in square brackets, D forms with d. Residues, ends and D or L forms follow the SMILES beside them. *: point of attachment. X2 = COC(=O)C(N*)c1ccccc1[N+](=O)[O-]; X3 = O=C(OCc1ccccc1[N+](=O)[O-])*; X1 = O=[N+]([O-])c1ccccc1CO*; Nle = CCCC[C@H](N)C(=O)O

What was measured:
[1] = Perfect off-state by site-specific incorporation of o-nitrobenzyl (o-NB) unit into RNase S' was determined before photolysis at 10 x E5 M/min
[2] = Perfect off-state by site-specific incorporation of o-nitrobenzyl (o-NB) unit into RNase S' was determined after photolysis at 10 x E5 M/min
[3] = Michaelis-Menten parameter(Kcat) value for the incorporation of photo-labile caged moiety into a proximity to the active site
[4] = Michaelis-Menten parameter(Km) value for the incorporation of photo-labile caged moiety into a proximity to the active site
[5] = Michaelis-Menten parameter value for the incorporation of photo-labile caged moiety into a proximity to the active site

Row | Photolysis [1] | RNase S' enzyme activity [2] | k cat [3] | Km [4] | k cat [5] | Structure (SMILES)
1 | 0.99 | 0.97 | – | – | – | CCCC[C@H](NC(=O)[C@H](Cc1c[nH]cn1)NC(=O)[C@H](CCC(N)=O)NC(=O)[C@H](CCCN=C(N)N)NC(=O)[C@H](CCC(=O)OCc1ccccc1[N+](=O)[O-])NC(=O)[C@H](Cc1ccccc1)NC(=O)[C@H](CCCCN)NC(=O)[C@H](C)NC(=O)[C@H](C)NC(=O)[C@H](C)NC(=O)[C@@H](NC(=O)[C@H](CCC(=O)O)NC(=O)[C@@H](N)CCCCN)[C@@H](C)O)C(=O)N[C@@H](CC(=O)O)C(=O)N[C@@H](CO)C(=O)O (H-KETAAAKFE(X1)RQH[Nle]DS-OH)
2 | 0.96 | 0.81 | – | – | – | CCCC[C@H](NC(=O)[C@H](Cc1c[nH]cn1)NC(=O)[C@H](CCC(N)=O)NC(=O)[C@H](CCCN=C(N)N)NC(=O)[C@H](CCC(=O)O)NC(=O)[C@H](Cc1ccccc1)NC(=O)[C@H](CCCCN)NC(=O)[C@H](C)NC(=O)[C@H](C)NC(=O)[C@H](C)NC(=O)[C@@H](NC(=O)[C@H](CCC(=O)OCc1ccccc1[N+](=O)[O-])NC(=O)[C@@H](N)CCCCN)[C@@H](C)O)C(=O)N[C@@H](CC(=O)O)C(=O)N[C@@H](CO)C(=O)O (H-KE(X1)TAAAKFERQH[Nle]DS-OH)
3 | 0.29 | 0.78 | 0.054 s⁻¹ | 1130 µM | – | CCCC[C@H](NC(=O)[C@H](Cc1c[nH]cn1)NC(=O)[C@H](CCC(N)=O)NC(=O)[C@H](CCCN=C(N)N)NC(=O)[C@H](CCC(=O)O)NC(=O)[C@H](Cc1ccccc1)NC(=O)[C@H](CCCCN)NC(=O)[C@H](C)NC(=O)[C@H](C)NC(=O)[C@H](C)NC(=O)[C@@H](NC(=O)[C@H](CCC(=O)O)NC(=O)[C@@H](N)CCCCN)[C@@H](C)O)C(=O)N[C@@H](CC(=O)OCc1ccccc1[N+](=O)[O-])C(=O)N[C@@H](CO)C(=O)O (H-KETAAAKFERQH[Nle]D(X1)S-OH)

The remaining lines, values behind:

Row | Structure (SMILES) | Photolysis [1] | RNase S' enzyme activity [2] | k cat [3] | Km [4] | k cat [5]
4 | CCCC[C@H](NC(=O)[C@H](Cc1c[nH]cn1)NC(=O)[C@H](CCC(N)=O)NC(=O)[C@H](CCCN=C(N)N)NC(=O)[C@H](CCC(=O)O)NC(=O)[C@H](Cc1ccccc1)NC(=O)[C@H](CCCCN)NC(=O)[C@H](C)NC(=O)[C@H](C)NC(=O)[C@H](C)NC(=O)[C@@H](NC(=O)[C@H](CCC(=O)O)NC(=O)[C@@H](N)CCCCNC(=O)OCc1ccccc1[N+](=O)[O-])[C@@H](C)O)C(=O)N[C@@H](CC(=O)O)C(=O)N[C@@H](CO)C(=O)O (H-K(X3)ETAAAKFERQH[Nle]DS-OH) | 1.01 | 1.04 | – | – | –
5 | CCCC[C@H](NC(=O)[C@H](Cc1c[nH]cn1)NC(=O)[C@H](CCC(N)=O)NC(=O)[C@H](CCCN=C(N)N)NC(=O)[C@H](CCC(=O)O)NC(=O)[C@H](Cc1ccccc1)NC(=O)[C@H](CCCCNC(=O)OCc1ccccc1[N+](=O)[O-])NC(=O)[C@H](C)NC(=O)[C@H](C)NC(=O)[C@H](C)NC(=O)[C@@H](NC(=O)[C@H](CCC(=O)O)NC(=O)[C@@H](N)CCCCN)[C@@H](C)O)C(=O)N[C@@H](CC(=O)O)C(=O)N[C@@H](CO)C(=O)O (H-KETAAAK(X3)FERQH[Nle]DS-OH) | 1.1 | 1.04 | – | – | –
6 | CCCC[C@H](NC(=O)[C@H](Cc1c[nH]cn1)NC(=O)[C@H](CCC(=O)NC(C(=O)OC)c1ccccc1[N+](=O)[O-])NC(=O)[C@H](CCCN=C(N)N)NC(=O)[C@H](CCC(=O)O)NC(=O)[C@H](Cc1ccccc1)NC(=O)[C@H](CCCCN)NC(=O)[C@H](C)NC(=O)[C@H](C)NC(=O)[C@H](C)NC(=O)[C@@H](NC(=O)[C@H](CCC(=O)O)NC(=O)[C@@H](N)CCCCN)[C@@H](C)O)C(=O)N[C@@H](CC(=O)O)C(=O)N[C@@H](CO)C(=O)O (stereo partly specified) (H-KETAAAKFERE(X2)H[Nle]DS-OH) | 0 | 0.37 | – | – | –
7 | CCCC[C@H](NC(=O)[C@H](Cc1c[nH]cn1)NC(=O)[C@H](CCC(N)=O)NC(=O)[C@H](CCCN=C(N)N)NC(=O)[C@H](CCC(=O)O)NC(=O)[C@H](Cc1ccccc1)NC(=O)[C@H](CCCCN)NC(=O)[C@H](C)NC(=O)[C@H](C)NC(=O)[C@H](C)NC(=O)[C@@H](NC(=O)[C@H](CCC(=O)O)NC(=O)[C@@H](N)CCCCN)[C@@H](C)O)C(=O)N[C@@H](CC(=O)O)C(=O)N[C@@H](CO)C(=O)O (H-KETAAAKFERQH[Nle]DS-OH) | 1.02 | – | – | – | 0.0678 s⁻¹
